Experimental data taken from patent publication US6825340B2, “Methods and reagents for inactivating ribonucleases” (Ambion, Inc., priority 1998, dated 2004).
“Also recorded” adds a separate entry of the source.

What was measured:
[1] = system: RNase mixture (RNase A, RNase 1, RNase T1); experiment: Isotopic RNase inactivation assay (radioactive RNA probe, acrylamide gel); assay type: biochemical, human, E. coli and a fungus; conditions: 20 mM DTT, 60° C. for 20 minutes
Experimental: FIG. 1. DTT-heat inactivation of different RNase concentrations. The RNase mixture was made to different concentrations in 20 mM DTT: 1 mM sodium citrate (pH 6.4). The RNase samples were incubated at 60° C. for 20 minutes. A radioactive RNA probe was added to the treated RNase samples, incubated at 37° C. for 16 hours, fractionated in a denaturing 5% acrylamide gel and exposed to x-ray film.
The inventors routinely perform assays on RNA designed to assess RNase activity in a sample. Two different assays are typically used for the detection of ribonuclease activity, non-isotopic and isotopic. Each assay generates similar data with regard to the sensitivity of detection. In both assays, the inactivation process is typically performed on a mixture of three different ribonucleases: RNase A, RNase 1, and RNase T1. Each ribonuclease is purified from a different species: […], E. coli and a fungus, respectively. The three RNases are very different from each other in their origin, substrate specificity and protein sequence. In this way, the inactivation process can test three completely different but well characterized ribonucleases. The standard stock RNase mixture employed in the following examples is prepared by combining 1 μl RNase 1 (100 U/μl; Ambion), 1 μl RNase cocktail (RNase A, 0.5 U/μl; RNase T1, 20 U/μl, Ambion) and 98 μl water. […]

[2] = system: AMV reverse transcriptase; experiment: Reverse transcription reaction (RETROscript kit), dCTP[α-32P] incorporation; assay type: biochemical; conditions: 20 mM reducing reagent
Experimental: (§1) FIG. 2. […] Reverse transcriptions were performed using the RETROscript™ kit (Ambion, Inc.). Mouse total RNA in DEPC-treated water was reverse transcribed with either MMLV or AMV reverse transcriptase in the presence or absence of 20 mM DTT. dCTP[α^32P] was included in the reactions to measure the efficiency of reverse transcription. Following incubation at 42° C. for 1 h, 5 μl of each reaction was subjected to TCA precipitation to measure the amount of dCTP[α^32P] incorporated into cDNA by reverse transcription.
(§2) The reverse transcription reactions were performed using the RETROscript™ kit (Ambion, Inc.). The following were assembled with or without 20 mM of the reducing reagents in a final volume of 19 μl: dNTPs (0.5 mM each), oligo dT (5 μM), 0.4 μl dCTP[α-^32p] (3000 Ci/mmol), 10 mM Tris-HCl (pH 8.3): 50 mM KCl: 1.5 mM MgCl2, mouse brain total RNA (4 μg). The reaction mixtures were incubated at 65° C. for 10 minutes. 1 μl (100 units) of AMV or MMLV reverse transcriptase were added and then the reactions were incubated at 42° C. for 1 hour. Reverse transcription by either enzyme was not inhibited by DTT (FIG. 2) or by DTE or β-mercaptoethanol.

[3] = biological target: T1, MMLV reverse transcriptase (Moloney murine leukemia virus, UniProt P03355); experiment: as above; assay type: biochemical; conditions: 20 mM reducing reagent
T1 construct: purchased Ambion, Inc
Experimental: as §1, §2

[4] = pH 7.0; cited from earlier work

Compound: O[C@H](CS)[C@H](O)CS [DTT, dithiothreitol]
- concentration of RNase mixture completely inactivated ([1]; 1 mM sodium citrate (pH 6.4), isotopic assay): up to 200 ng/ml
- RNase inactivation in different buffers and solutions ([1]; RNase mixture 200 ng/ml, 17 solutions, isotopic): inactivated RNase activity in all of buffers and solutions tested
- inhibition of reverse transcription by AMV reverse transcriptase [2]: does not inhibit; also recorded: not inhibited
- inhibition of reverse transcription by MMLV reverse transcriptase [3]: does not inhibit; also recorded: not inhibited
- redox potential [4]: −0.33 volts
